Laboratory results taken from the supplement of paper PMC4932681.
Counter-ions that a name gives are not always drawn.

Columns and labels:
T-47D [1] = experiment: relative IC50 (midpoint of fitted logistic curve, plateau may be below 50% inhibition; CellTiter-Glo viability); higher = less potent; conditions: 72 h
How it was run: (§1)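 CellTiter-Glo viability was the readout, taken on a PHERAstar and normalised to vehicle-only and positive controls. It was measured after breast cancer cell lines and their resistant derivatives spent 72 h at 37 °C in 384-well plates containing library drugs at five concentrations spanning a 10 000-fold range, with 1 μM of the selecting drug in the medium of resistant lines. From logistic dose–response fits in the Breeze pipeline came drug sensitivity score, relative IC50 (curve midpoint) and top-dose inhibition.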

BT-474 [2] = experiment: as above; conditions: 72 h
How it was run: as §1

ZR-75-1 [3] = experiment: as above; conditions: 72 h
How it was run: as §1

T-47D Tam2 [4] = experiment: as above; conditions: 4-OH-tamoxifen in medium 1 µM; 72 h
How it was run: as §1

BT-474 Tam1 [5] = experiment: as above; conditions: 4-OH-tamoxifen in medium 1 µM; 72 h
How it was run: as §1

T-47D Tam1 [6] = experiment: as above; conditions: 4-OH-tamoxifen in medium 1 µM; 72 h
How it was run: as §1

T-47D [7] = experiment: drug sensitivity score (DSS) (DSS (dimensionless)); higher = more sensitive; extreme values may be limits of the assay; conditions: 72 h
Description: (§2)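 FIMM FO2B library drugs were tested at 5 concentrations (10,000-fold range) for 72 h, with CellTiter-Glo viability normalised to DMSO and benzethonium chloride controls. The Drug Sensitivity Score (DSS) is computed from the fitted logistic dose-response curve (area-based; 0 = inactive). Resistant lines and the 'in 1µM tamoxifen' arms were tested in 1 µM 4-OH-tamoxifen.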

ZR-75-1 Tam2 [8] = experiment: as above; conditions: 4-OH-tamoxifen in medium 1 µM; 72 h
Description: as §2

MCF-7 [9] = experiment: as above; conditions: 72 h
Description: as §2

BT-474 [10] = experiment: as above; conditions: 72 h
Description: as §2

ZR-75-1 Tam1 [11] = experiment: as above; conditions: 4-OH-tamoxifen in medium 1 µM; 72 h
Description: as §2

BT-474 Tam2 [12] = experiment: as above; conditions: 4-OH-tamoxifen in medium 1 µM; 72 h
Description: as §2

ZR-75-1 [13] = experiment: as above; conditions: 72 h
Description: as §2

T-47D Tam2 [14] = experiment: as above; conditions: 4-OH-tamoxifen in medium 1 µM; 72 h
Description: as §2

MCF-7 Tam1 [15] = experiment: as above; conditions: 4-OH-tamoxifen in medium 1 µM; 72 h
Description: as §2

BT-474 Tam1 [16] = experiment: as above; conditions: 4-OH-tamoxifen in medium 1 µM; 72 h
Description: as §2

T-47D Tam1 [17] = experiment: as above; conditions: 4-OH-tamoxifen in medium 1 µM; 72 h
Description: as §2

MCF-7 [18] = experiment: relative IC50 (midpoint of fitted logistic curve, plateau may be below 50% inhibition; CellTiter-Glo viability); higher = less potent; conditions: 72 h
How it was run: as §1

ZR-75-1 Tam1 [19] = experiment: as above; conditions: 4-OH-tamoxifen in medium 1 µM; 72 h
How it was run: as §1

BT-474 Tam2 [20] = experiment: as above; conditions: 4-OH-tamoxifen in medium 1 µM; 72 h
How it was run: as §1

ZR-75-1 Tam2 [21] = experiment: as above; conditions: 4-OH-tamoxifen in medium 1 µM; 72 h
How it was run: as §1

MCF-7 Tam1 [22] = experiment: as above; conditions: 4-OH-tamoxifen in medium 1 µM; 72 h
How it was run: as §1

Compound	relative IC50 (T-47D [1]; 4-OH-tamoxifen in medium 1 µM) [nM]	relative IC50 (BT-474 [2]; 4-OH-tamoxifen in medium 0 µM) [nM]	relative IC50 (BT-474 [2]; 4-OH-tamoxifen in medium 1 µM) [nM]	relative IC50 (ZR-75-1 [3]; 4-OH-tamoxifen in medium 0 µM) [nM]	relative IC50 (T-47D Tam2 [4]) [nM]	relative IC50 (BT-474 Tam1 [5]) [nM]	relative IC50 (T-47D Tam1 [6]) [nM]	drug sensitivity score (T-47D [7]; 4-OH-tamoxifen in medium 0 µM)	drug sensitivity score (T-47D [7]; 4-OH-tamoxifen in medium 1 µM)	drug sensitivity score (ZR-75-1 Tam2 [8])	drug sensitivity score (MCF-7 [9]; 4-OH-tamoxifen in medium 0 µM)	drug sensitivity score (MCF-7 [9]; 4-OH-tamoxifen in medium 1 µM)	drug sensitivity score (BT-474 [10]; 4-OH-tamoxifen in medium 0 µM)	drug sensitivity score (BT-474 [10]; 4-OH-tamoxifen in medium 1 µM)	drug sensitivity score (ZR-75-1 Tam1 [11])	drug sensitivity score (BT-474 Tam2 [12])	drug sensitivity score (ZR-75-1 [13]; 4-OH-tamoxifen in medium 0 µM)	drug sensitivity score (ZR-75-1 [13]; 4-OH-tamoxifen in medium 1 µM)	drug sensitivity score (T-47D Tam2 [14])	drug sensitivity score (MCF-7 Tam1 [15])	drug sensitivity score (BT-474 Tam1 [16])	drug sensitivity score (T-47D Tam1 [17])	relative IC50 (MCF-7 [18]; 4-OH-tamoxifen in medium 0 µM) [nM]	relative IC50 (MCF-7 [18]; 4-OH-tamoxifen in medium 1 µM) [nM]	relative IC50 (ZR-75-1 Tam1 [19]) [nM]	relative IC50 (BT-474 Tam2 [20]) [nM]	relative IC50 (T-47D [1]; 4-OH-tamoxifen in medium 0 µM) [nM]	relative IC50 (ZR-75-1 [3]; 4-OH-tamoxifen in medium 1 µM) [nM]	relative IC50 (ZR-75-1 Tam2 [21]) [nM]	relative IC50 (MCF-7 Tam1 [22]) [nM]
Cc1ccc(C(=O)Nc2ccc(CN3CCN(C)CC3)c(C(F)(F)F)c2)cc1C#Cc1cnc2cccnn12	391	> 1000	458	> 1000	337	406	43.2	0.62	1.21	0.0834	0	0.178	0	1.07	0.0086	0	0	0.047	1.72	0.248	1.26	11.6	–	–	–	–	–	–	–	–
C=C(c1ccc(C(=O)O)cc1)c1cc2c(cc1C)C(C)(C)CCC2(C)C [Bexarotene]	–	> 10000	–	–	> 10000	> 10000	–	0.69	0.469	0.973	0	0	0	0.345	0	0	0.367	0.925	0	3.15	0	3.44	> 10000	> 10000	> 10000	> 10000	–	–	–	–
CC/C(=C(\c1ccccc1)c1ccc(OCCN(C)C)cc1)c1ccccc1 [Tamoxifen citrate]	–	3470	3200	> 10000	3290	2390	–	0	0	0.865	0	3.99	1.53	5.05	0.0116	4.61	0	1.69	2.54	0.973	6.73	0.576	–	3480	–	3610	> 10000	3540	–	–
CC(=O)OC[C@H]1O[C@@H]([S-])[C@H](OC(C)=O)[C@@H](OC(C)=O)[C@@H]1OC(C)=O.CCP(CC)CC.[Au+] [Auranofin]	223	719	1020	–	584	853	65.3	1.36	4.22	0.324	6.78	2.93	3.43	4.22	0.421	3.68	0.254	1.38	4.19	1.48	5	11.5	561	376	–	785	804	–	–	–
C#Cc1cccc(Nc2ncnc3cc(OCCOC)c(OCCOC)cc23)c1 [Erlotinib]	> 10000	1770	1250	> 10000	370	1370	1230	0.57	0	0.0461	0	0	3.4	9.97	0.136	7.08	0	0.0315	5.31	0.0215	9.3	3.91	> 10000	> 10000	–	1960	–	–	–	–
CC(C)n1cnc2c(NCCc3ccc(O)cc3)nc(-c3csc4ccccc34)nc21 [StemRegenin 1]	3480	–	3380	–	1570	2120	3410	1.21	2.41	1.51	1.85	11.7	1.47	5.07	0.327	5.49	0	0.414	4.97	0.218	7.32	1.95	4400	335	–	2830	4120	–	–	–
CCc1cncnc1N1CCN(Cc2nc3ccc(C(F)(F)F)cc3[nH]2)CC1	–	3300	4060	–	2310	3230	1570	2.8	0.435	1.31	1.96	2.72	1.64	2.18	0.834	2.05	0.27	1.12	1.89	0.774	3.7	2.79	2920	1100	–	3220	1530	–	–	–
CC1(C)CNc2cc(NC(=O)c3cccnc3NCc3ccncc3)ccc21 [Motesanib  (AMG-706)]	> 10000	> 10000	> 10000	> 10000	–	> 10000	> 10000	0	0	0	0	0	0	0	0	0	0	0	0.166	0	0	0	> 10000	> 10000	> 10000	> 10000	> 10000	> 10000	> 10000	> 10000
